From patent US8765775B2, “Anti-angiogenic compounds” (Universitaet Zuerich, priority 2008, dated 2014) come the findings set out here.

Data set [1] addresses T1, EphB4 (Homo sapiens, UniProt P54760).
T1 sequence (P54760 16-987): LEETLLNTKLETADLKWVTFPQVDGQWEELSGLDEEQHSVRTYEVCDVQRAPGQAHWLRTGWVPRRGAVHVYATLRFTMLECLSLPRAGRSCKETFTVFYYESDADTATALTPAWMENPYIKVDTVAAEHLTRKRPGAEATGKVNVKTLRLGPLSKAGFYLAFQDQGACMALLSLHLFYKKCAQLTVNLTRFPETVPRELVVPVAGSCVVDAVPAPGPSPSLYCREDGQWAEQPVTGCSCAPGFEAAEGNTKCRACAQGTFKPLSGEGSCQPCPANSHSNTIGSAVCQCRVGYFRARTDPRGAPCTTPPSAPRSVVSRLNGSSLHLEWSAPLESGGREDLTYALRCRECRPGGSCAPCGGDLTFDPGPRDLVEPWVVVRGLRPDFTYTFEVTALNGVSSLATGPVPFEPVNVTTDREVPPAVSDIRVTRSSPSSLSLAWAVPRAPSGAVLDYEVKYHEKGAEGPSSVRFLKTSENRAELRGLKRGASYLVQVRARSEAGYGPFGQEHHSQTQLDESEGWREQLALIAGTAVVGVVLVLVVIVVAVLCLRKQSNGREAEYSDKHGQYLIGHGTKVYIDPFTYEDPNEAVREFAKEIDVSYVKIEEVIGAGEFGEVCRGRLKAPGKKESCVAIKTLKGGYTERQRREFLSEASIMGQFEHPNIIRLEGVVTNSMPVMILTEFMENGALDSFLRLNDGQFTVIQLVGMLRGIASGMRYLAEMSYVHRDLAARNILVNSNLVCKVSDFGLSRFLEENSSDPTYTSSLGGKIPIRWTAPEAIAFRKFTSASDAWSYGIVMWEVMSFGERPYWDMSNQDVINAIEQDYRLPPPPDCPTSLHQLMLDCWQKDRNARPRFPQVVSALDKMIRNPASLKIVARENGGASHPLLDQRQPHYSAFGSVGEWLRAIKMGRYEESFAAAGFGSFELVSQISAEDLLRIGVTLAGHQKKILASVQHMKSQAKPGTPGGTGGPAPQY
The data set is described as follows: IC50 and % inhibition (Table 3). The note with it: for inhibition at 20 µM / inhibition at 10 µM: read-out: % inhibition at indicated concentration C; for IC50: Table 3, repeated determinations, read-out: IC50. The data set is classed as biochemical.

Data set [2] concerns the target T1, EphB4. The data set is described as follows: Panvera Z'Lyte FRET-based enzymatic assay. The note with it: for Inhibitory activity in the enzymatic assay (in words): Z'Lyte.
Procedure: In vitro kinase activity was measured using the Panvera Z'Lyte Tyr2 kinase assay PV3191 (Invitrogen, USA), according to the manufacturer's instructions. […] The reaction is performed at room temperature for 1 hour.
Data set [3] has as its target T2, myc-tagged full-length human EphB4 (Homo sapiens, UniProt P54760).
T2 construct: stably transfected with myc-tagged full-length human EphB4; expressed in transfected cells; host or cells: CHO-FRT cells (Flip-In System, Invitrogen)
T2 sequence (P54760 16-987): T1 sequence (P54760 16-987)
Kind of data set: Phospho-EphB4 ELISA of CHO cells (EphB4 autophosphorylation). The note with it: in CHO cells, at 20 μM. Type of data set: cell-based. The procedure:
Phospho-EphB4 ELISA of CHO cells. The ELISA assay was performed as follows: Chinese hamster ovary (CHO)-FRT cells are stably transfected with myc-tagged full-length human EphB4 according to the Flip-In System protocol (Invitrogen, USA). […] Cells of this clone are preincubated with EphB4 inhibitors for 15 minutes and then stimulated with preclustered ephrinB2-Fc for 45 minutes at 37° C. Cells are lysed, transferred to a 96-well plate coated with anti-myc antibody and incubated overnight at 4° C. After incubation with anti-phosphotyrosine antibody, reactions are developed with BM Blue peroxydase substrate, and autophosphorylation of EphB4 is quantified by measuring absorption at 450 nm.
For orientation: ELISA stands for enzyme-linked immunosorbent assay.

“And” between values parts separate entries of the source, which are not always exact repeats. Equal values may be shown once.

For the compound `COc1ccccc1-n1c(-c2ccc(C#N)cc2)cn2c3c(=O)[nH]c(=O)n(C)c3nc12` [Compound 28, 8-(2-Methoxyphenyl)-1-methyl-7-p-cyanophenyl-1H-imidazo[2,1-f]purine-2,4(3H,8H)-dione], the melting point lay in the range of 303 to 305 °C. Moreover, on EphB4 [1] (C = 20 μM, 20 µM), the “% inhibition at indicated concentration C” value (from here on “% inhibition”) was 17%. The inhibition at 20 µM at EphB4 [1] (C = 20 μM) was 13%.

Consider `COc1ccccc1-n1c(-c2ccc(F)cc2)cn2c3c(=O)[nH]c(=O)n(CS(C)(=O)=O)c3nc12` [Compound 35, 8-(2-Methoxyphenyl)-1-(methylsulfonylmethyl)-7-(p-Fluorophenyl)-1H-imidazo[2,1-f]purine-2,4(3H,8H)-dione], for which the IC50 at EphB4 [1] is 7.9 µM and 7.1 µM. The same measure, in the same setting: the figure for `COc1ccccc1-n1c(-c2ccc(F)cc2)cn2c3c(=O)[nH]c(=O)n(CSC)c3nc12` [Compound 34, 8-(2-Methoxyphenyl)-1-(methylthiomethyl)-7-(p-Fluorophenyl)-1H-imidazo[2,1-f]purine-2,4(3H,8H)-dione] is 5.1 µM and 6.4 µM; for `COC(=O)Cn1c(=O)[nH]c(=O)c2c1nc1n(-c3ccccc3OC)c(-c3ccc(F)cc3)cn21` [Compound 32, 8-(2-Methoxyphenyl)-1-(methoxy-2-oxoethyl)-7-(p-Fluorophenyl)-1H-imidazo[2,1-f]purine-2,4(3H,8H)-dione] it is 9.5 µM and 8.9 µM. For `COCCCn1c(-c2ccccc2)cn2c3c(=O)[nH]c(=O)n(C)c3nc12` [Compound 6], the “% inhibition” value at EphB4 [1] (C = 10 μM, 10 µM) was found to be 46%. Moreover, the inhibition at 10 µM at EphB4 [1] (C = 10 μM) came out at 49%. At EphB4 [2], the midpoint of inhibition, the IC50, lay at 50 µM and the “Inhibitory activity in the enzymatic assay (in words)” value was “mid-micromolar range”. Further, the inhibition at 20 µM in data set [3] (read-out: Cell-based assay percent inhibition) came out at 28%. `Cn1c(-c2ccccc2)cn2c3c(=O)[nH]c(=O)n(Cc4ccccc4)c3nc12` [Compound 19, 1-Benzyl-8-methyl-7-phenyl-1H-imidazo[2,1-f]purine-2,4(3H,8H)-dione]: the melting point lay in the range of 306 to 308 °C.

On to `CC1(C)Cc2c(sc(NC(=O)Nc3ccccc3)c2C(N)=O)CO1` [Compound 9, reference compound], for which, at EphB4 [2] (read-out: Enzymatic assays IC50 Z′Lyte, FRET-based, 10 μM ATP, 1% DMSO, room temperature 1 hour), the IC50 was found to be 76 µM. As to `COc1ccccc1-n1c(-c2ccccc2)c(C#N)n2c3c(=O)[nH]c(=O)n(C)c3nc12` [Compound 41, 6-Cyano-8-(2-methoxyphenyl)-1-methyl-7-phenyl-1H-imidazo[2,1-f]purine-2,4(3H,8H)-dione], the “% inhibition” value at EphB4 [1] (C = 20 μM, 20 µM) was 30%. Moreover, at EphB4 [1] (C = 20 μM), the inhibition at 20 µM was 21%. Turning to `CCCn1c(-c2ccccc2)cn2c3c(=O)[nH]c(=O)n(C)c3nc12` [Compound 4], the “% inhibition” value at EphB4 [1] (C = 10 μM, 10 µM) is 58% and 54%. Besides, on EphB4 [1] (C = 10 μM), the inhibition at 10 µM was 62%. Also, on EphB4 [1], the IC50 is 8 µM and 9 µM. In addition, on EphB4 [2], the IC50 amounted to 1.9 µM and the “Inhibitory activity in the enzymatic assay (in words)” value is recorded as “low-micromolar”. Also, in data set [3], the “Cell-based assay percent inhibition” value is “neg”. In the case of `COc1ccc(-n2c(-c3ccc(F)cc3)cn3c4c(=O)[nH]c(=O)n(C)c4nc23)c(OC)c1` [Compound 16], on EphB4 [1] (C = 10 μM, 10 µM), the “% inhibition” value is 50% and 28%. `COc1ccccc1-n1c(-c2ccc([N+](=O)[O-])cc2)cn2c3c(=O)[nH]c(=O)n(C)c3nc12` [Compound 27, 8-(2-Methoxyphenyl)-1-methyl-7-p-nitrophenyl-1H-imidazo[2,1-f]purine-2,4(3H,8H)-dione] registered a melting point of 323 to 325 °C. Compound `COc1ccccc1-n1c(-c2ccccc2)c(Br)n2c3c(=O)[nH]c(=O)n(C)c3nc12` [Compound 37, 6-Bromo-8-(2-methoxyphenyl)-1-methyl-7-phenyl-1H-imidazo[2,1-f]purine-2,4(3H,8H)-dione] came in with a melting point of 274 to 276 °C. As for `COc1ccccc1-n1c(-c2ccc(F)cc2)cn2c3c(=O)[nH]c(=O)[nH]c3nc12` [Compound 30, 7-p-Fluorophenyl-8-(2-methoxyphenyl)-1H-imidazo[2,1-f]purine-2,4(3H,8H)-dione], the IC50 at EphB4 [1] is 4.6 µM and 6.2 µM. For the compound `COc1ccc(OC)c(-n2c(-c3ccc(F)cc3)cn3c4c(=O)[nH]c(=O)n(C)c4nc23)c1` [Compound 17], the “% inhibition” value at EphB4 [1] (C = 10 μM, 10 µM) was 62%. The inhibition at 10 µM on EphB4 [1] (C = 10 μM) is 72%. Consider `COc1ccccc1-n1c(-c2ccc(C(=O)O)cc2)cn2c3c(=O)[nH]c(=O)n(C)c3nc12` [Compound 44, 8-(2-Methoxyphenyl)-1-methyl-7-p-carboxyphenyl-1H-imidazo[2,1-f]purine-2,4(3H,8H)-dione], for which the “% inhibition” value on EphB4 [1] (C = 20 μM, 20 µM) is 23% and 19% and 13%. Also, the inhibition at 20 µM at EphB4 [1] (C = 20 μM) came out at 12%. For `COc1ccccc1-n1c(-c2ccc(F)cc2)cn2c3c(=O)[nH]c(=O)n(Cc4ccccc4)c3nc12` [Compound 22, 1-Benzyl-7-p-fluorophenyl-8-(2-methoxyphenyl)-1H-imidazo[2,1-f]purine-2,4(3H,8H)-dione], the melting point lay within 251 to 253 °C.

`O=c1[nH]c(=O)n(Cc2ccccc2)c2nc3n(-c4ccccc4)c(-c4ccc(F)cc4)cn3c12` [Compound 21, 1-Benzyl-7-p-fluorophenyl-8-phenyl-1H-imidazo[2,1-f]purine-2,4(3H,8H)-dione] returned a melting point of 250 to 252 °C. Still for that read-out and setting: the figure for `CCCCn1c(-c2ccccc2)c(Br)n2c3c(=O)[nH]c(=O)n(C)c3nc12` [Compound 38, 6-Bromo-8-butyl-1-methyl-7-phenyl-1H-imidazo[2,1-f]purine-2,4(3H,8H)-dione] is 302 to 304 °C.

On to `O=c1[nH]c(=O)n(Cc2ccccc2)c2nc3[nH]c(-c4ccccc4)cn3c12` [Compound 18, 1-Benzyl-7-phenyl-1H-imidazo[2,1-f]purine-2,4(3H,9H)-dione], for which the melting point is 393 to 395 °C. With `Cn1c(=O)[nH]c(=O)c2c1nc1n(CCCCO)c(-c3ccc(NCCCCO)cc3)cn21` [Compound 29], the melting point lay in the range of 205 to 207 °C. In addition, the “% inhibition” value on EphB4 [1] (C = 20 μM, 20 µM) is 50% and 62% and 37% and 34%. For `O=c1[nH]c(=O)n(Cc2ccccc2)c2nc3n(-c4ccccc4)c(-c4ccc(F)cc4)c(Br)n3c12` [Compound 36, 1-Benzyl-6-bromo-7-p-fluorophenyl-8-phenyl-1H-imidazo[2,1-f]purine-2,4(3H,8H)-dione], the melting point lay in the range of 276 to 278 °C. The “% inhibition” value at EphB4 [1] (C = 10 μM, 10 µM) is 10% and 4%. Compound `CNc1ccc(-c2cn3c4c(=O)[nH]c(=O)n(Cc5ccccc5)c4nc3n2C)cc1` [Compound 20, 1-Benzyl-8-methyl-7-p-methylaminophenyl-1H-imidazo[2,1-f]purine-2,4(3H,8H)-dione] yielded a melting point of 288 to 290 °C. As for `COc1ccccc1-n1c(-c2ccccc2)cn2c3c(=O)[nH]c(=O)n(Cc4ccccc4)c3nc12` [Compound 25, 1-Benzyl-8-(2-methoxyphenyl)-7-phenyl-1H-imidazo[2,1-f]purine-2,4(3H,8H)-dione], the melting point fell in the range of 301 to 303 °C. Further, on EphB4 [1] (C = 10 μM, 10 µM), the “% inhibition” value is reported as 11%. Moreover, the inhibition at 10 µM on EphB4 [1] (C = 10 μM) came out at 15%.

Usually melting point stands for the temperature of the solid-liquid transition. The term % inhibition denotes the change of the read-out against control, counted positive when it falls. By IC50 is commonly meant the point on the concentration scale where inhibition reaches its midpoint.
